Assay results published in paper PMC12040169 (PLOS Biology, 2025).

Key:
[1] = test system: T1, CTL2-GFP (C. trachomatis L2/434/Bu, GFP-expressing); test: microbe, parasite or virus in culture; parameters: Intracellular C. trachomatis growth in HeLa cells, bulk GFP fluorescence relative to DMSO; conditions: Chlamydia trachomatis, HeLa, 28.5 h; bulk GFP, mean of 2; read-out: % of control remaining
T1 construct: L2/434/Bu, GFP-expressing
Description: MICs were calculated as described above.

[2] = in vitro; parameters: Viability of infected HeLa host cells, resazurin conversion, bulk resorufin fluorescence relative to DMSO; conditions: human, hela cells; bulk resorufin, mean of 2
[3] = test system: T2, C. trachomatis L2/434/Bu expressing GFP (CTL2-GFP); test: microbe, parasite or virus in culture; parameters: C. trachomatis total inclusion area by high-content imaging, normalised to DMSO; conditions: Chlamydia trachomatis, HeLa, 28.5 h; total inclusion area; read-out: % of control remaining
T2 construct: L2/434/Bu GFP intracellular growth in HeLa cells
How it was run: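 First, bulk GFP and resorufin signals were measured in compound-treated infected cultures. Cells were next fixed and stained with Hoechst. Finally, high-content imaging quantified chlamydial inclusions (area, number) and host nuclei, and MICs were calculated.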

[4] = in vitro; conditions: human, hela cells, % viability

Row | SMILES | activity at 1 µM [1] [%] | activity at 5 µM [1] [%] | activity at 10 µM [1] [%] | viability at 28.5 h, 1 µM [2] [%] | viability at 28.5 h, 5 µM [2] [%] | viability at 28.5 h, 10 µM [2] [%] | activity at 1 µM [3] [%] | activity at 5 µM [3] [%] | activity at 10 µM [3] [%] | viability at 28.5 h, 10 µM [4] [%]
1 | O=C(CSCc1c(F)cccc1Cl)Nc1ccc(S(=O)(=O)N2CCCCC2)cc1 [CBK268034] | 82.4 | 35.6 | 27.1 | 91.9 | 104 | 101 | 90.3 | 35.6 | 13.2 | 90.4
2 | Cc1ccc(N2C(=O)c3[nH]nc(C)c3C2c2ccc(O)cc2)cc1 (centres unmarked) [CBK287915] | 108 | 89.5 | 54.1 | 98 | 107 | 106 | 111 | 93.4 | 54.6 | 94.7
3 | O=C(Nc1ccccc1C(=O)Nc1nnc(C(F)(F)F)s1)c1ccccc1Cl [CBK076900] | 130 | 90.8 | 45.1 | 94.7 | 97 | 84.6 | 113 | 64.7 | 63.4 | 76.9
4 | COc1cc(OC)c(CCNC2CCCc3c2cnn3C)c(OC)c1 (centres unmarked) [CBK304482] | 147 | 156 | 135 | 97.4 | 91.3 | 93.8 | 102 | 131 | 56.7 | 111
5 | O=C(O)c1cn(C2CC2)c2cc(N3CCN(C(=O)Cc4ccsc4)CC3)c(F)cc2c1=O [CBK297142] | 137 | 28.4 | 17.7 | 90.6 | 93 | 90.7 | 114 | 17.9 | 12.9 | 88.9
6 | CN1CCOC(CNc2nc(-c3ccncc3)nc3c2CCC3)C1 (centres unmarked) [CBK304890] | 141 | 112 | 126 | 90.5 | 92.8 | 99.5 | 46.1 | 45.8 | 25.1 | 87
7 | CCOc1cc(/C=N/Nc2nnc(C)n2N)ccc1O [CBK027460] | 109 | 57.8 | 26 | 93.3 | 88.7 | 87.4 | 115 | 81 | 31.7 | 88.9
8 | Nc1ccc(C(=O)Nc2ccc(-c3nc4ccc(NC(=O)c5ccc(N)cc5)cc4[nH]3)cc2)cc1 [CBK261147] | 149 | 133 | 160 | 88.3 | 93.2 | 103 | 101 | 76.7 | 91.9 | 109
9 | O=C(NCCNCCNC(=O)C1(c2ccccc2)CCCC1)C1(c2ccccc2)CCCC1 [CBK017670] | 123 | 49.1 | 13.5 | 91.6 | 93.5 | 89.5 | 107 | 54.1 | 8.64 | 110
10 | CC(Cc1nc(-c2nccn2C)cs1)n1cc(Cl)cn1 (centres unmarked) [CBK304114] | 79.3 | 21 | 7.42 | 108 | 100 | 105 | 97.2 | 15.4 | 7.1 | 90.1
11 | Cc1c(OCc2cnn(-c3ccccc3)c2)ccc(-c2n[nH]c(C(F)(F)F)c2-c2ccccc2)c1O [CBK264962] | 89.8 | 73.9 | 49.7 | 109 | 90.9 | 97 | 82.3 | 57.5 | 20.9 | 104
12 | CC(Nc1cc(N2CCN(CCO)CC2)ccc1[N+](=O)[O-])c1ccc(Br)cc1 (centres unmarked) [CBK041273] | 139 | 130 | 93.8 | 91.4 | 94.5 | 96.3 | 130 | 81.9 | 47.4 | 103
13 | FC(F)(F)CCN1CCC2(CC1)NCCc1c2[nH]c2ccc(Cl)cc12 [CBK039331] | 123 | 46.8 | 30.2 | 98.2 | 105 | 108 | 56.9 | 20.2 | 7.6 | 91
14 | Cc1noc(NS(=O)(=O)c2ccc(NC(=O)COc3ccccc3Br)cc2)c1C [CBK263918] | 97.7 | 57.6 | 25.5 | 96.5 | 96.5 | 95.3 | 91.6 | 88.5 | 31 | 89.4
15 | O=C(Nc1ccccc1N1CCCNCC1)c1ccc2ccccc2c1 [CBK038927T] | 94.8 | 1.41 | 8.25 | 115 | 114 | 116 | 84.9 | 7.75 | 1.67 | 97.3
16 | CCN1CCN(c2cc3c(cc2F)c(=O)c(C(=O)NCCOC)cn3C2CC2)CC1 [CBK300529] | 36.3 | 5.5 | 6.24 | 88.9 | 93 | 88.7 | 24.3 | 3.14 | 0.623 | 94.2
17 | O=C(Nc1ccc(S(=O)(=O)Nc2ncccn2)cc1)c1ccc2c(c1)OCCO2 [CBK268132] | 135 | 76.4 | 55.4 | 84 | 94.2 | 95.2 | 89.9 | 82.3 | 42.6 | 96.7
